From US4490388A, “Amidine compound and anticomplement agent comprising same” (Torii & Co., Ltd., priority 1981, dated 1984)
pIC50: −log10 of the molar value. Values joined by “and” are separate entries in the source; they are usually repeats but may differ in a detail not shown here. Equal entries are not always repeated. Where two headings read alike, the source gives them in different places.

Columns and labels:
complement = assay: Inhibition of complement mediated hemolysis; assay type: cell-based; settings: read-out: Inhibition of complement mediated hemolysis (%)
Description: The complement mediated hemolysis is widely used as a means to determine the titration of complement. The principle of this method is based on the fact that hemolysis is caused by the activation of complement, when the latter is added to a complex (immune complex) of erythrocytes and the autibody thereof. The degree of hemolysis varies in proportion to the amount of complement added. Therefore, when a known amount of complement admixed with a C1 esterase inhibitor is used, the hemolysis must be suppressed in proportion to the inhibitory activity.
The anti-C1 esterase (C1r, C1s) activity was determined according to the method of Okamura et al. [K. Okamura, M. Muramatsu and B. Fujii, Biochem. Biophys. […] The inhibition of complement mediated hemolysis was determined according to the method of Baker et al. [B. R. Baker and E. H. Erickson, J. Med. Chem., 12, 408-414 (1969)].

[1] = Toxicity, median lethal dose (LD50); settings: in vivo
Thrombin = Thrombin (Bos taurus, UniProt P00735); assay: Anti-thrombin activity (hydrolysis of TAME); assay type: biochemical
Description: (§1) The anti-trypsin, anti-plasmin, anti-kallikrein and anti-thrombin activities were determined according to the method of Muramatsu et al. [M. Muramatsu, T. Onishi, S. Makino, Y. Hayashi and S. Fujii, J. of Biochem., 58, 214 (1965)]. The data summarized in Table 1 are expressed in terms of molar concentration (id50) of the test compound which inhibits 50% of the activity of each enzyme to hydrolyze TAME (tosylarginine methyl ester). The compound No. corresponds to the compound number shown in Examples.

Trypsin = target: T1, Trypsin (Bos taurus, UniProt P00760); assay: Anti-trypsin activity (hydrolysis of TAME); assay type: biochemical
T1 sequence (P00760 24-246): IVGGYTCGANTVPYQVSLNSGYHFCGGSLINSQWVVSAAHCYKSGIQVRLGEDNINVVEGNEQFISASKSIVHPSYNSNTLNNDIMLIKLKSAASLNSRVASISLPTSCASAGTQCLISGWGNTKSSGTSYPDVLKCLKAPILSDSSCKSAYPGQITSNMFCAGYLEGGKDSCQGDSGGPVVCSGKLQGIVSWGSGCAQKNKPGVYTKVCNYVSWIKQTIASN
Description: as §1

Plasmin = Plasmin (Homo sapiens, UniProt P00747); assay: Anti-plasmin activity (hydrolysis of TAME); assay type: biochemical
Description: as §1

C1r = target: T2, C1r (Homo sapiens, UniProt P00736); assay: Anti-C1 esterase activity, C1r (hydrolysis of AAME); assay type: biochemical; settings: for pIC50: molar concentration inhibiting 50% of AAME hydrolysis, read-out: Anti-C1 activity, C1r id50; for inhibition at 10 µM: at 1×10^-5 M, read-out: Anti-C1 activity, C1r percent inhibition
T2 sequence (P00736 464-705 limits assumed): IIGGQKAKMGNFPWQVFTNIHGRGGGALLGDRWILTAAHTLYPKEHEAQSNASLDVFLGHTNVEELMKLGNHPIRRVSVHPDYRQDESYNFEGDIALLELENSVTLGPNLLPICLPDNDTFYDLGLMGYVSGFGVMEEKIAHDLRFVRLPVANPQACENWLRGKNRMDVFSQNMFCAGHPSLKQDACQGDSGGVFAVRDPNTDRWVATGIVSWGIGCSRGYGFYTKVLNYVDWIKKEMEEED
T2 sequence (P00736 18-463 partner limits assumed): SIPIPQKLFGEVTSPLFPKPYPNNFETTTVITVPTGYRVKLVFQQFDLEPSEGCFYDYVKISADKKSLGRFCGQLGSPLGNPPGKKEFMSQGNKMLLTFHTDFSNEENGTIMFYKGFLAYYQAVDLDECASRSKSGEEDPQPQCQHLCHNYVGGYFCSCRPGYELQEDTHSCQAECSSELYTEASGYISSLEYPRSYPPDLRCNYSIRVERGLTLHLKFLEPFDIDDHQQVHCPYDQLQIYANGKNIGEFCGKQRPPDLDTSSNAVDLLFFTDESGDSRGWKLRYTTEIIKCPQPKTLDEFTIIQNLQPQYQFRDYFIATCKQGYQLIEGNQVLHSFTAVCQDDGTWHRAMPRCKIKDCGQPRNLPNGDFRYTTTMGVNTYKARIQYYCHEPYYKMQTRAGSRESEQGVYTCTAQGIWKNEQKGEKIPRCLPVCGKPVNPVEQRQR
Description: The anti-C1 esterase (C1r, C1s) activity was determined according to the method of Okamura et al. [K. Okamura, M. Muramatsu and B. Fujii, Biochem. Biophys. […] The figures in Table 2 have the following meanings:
C1r: Molar concentration of the test compound which inhibits 50% of the ability of C1r to hydrolyse AAME (acetylarginin methyl ester) (id50).

C1s = target: T3, C1s (Homo sapiens, UniProt P09871); assay: Anti-C1 esterase activity, C1s (hydrolysis of ATEE); assay type: biochemical
T3 sequence (P09871 438-688 limits assumed): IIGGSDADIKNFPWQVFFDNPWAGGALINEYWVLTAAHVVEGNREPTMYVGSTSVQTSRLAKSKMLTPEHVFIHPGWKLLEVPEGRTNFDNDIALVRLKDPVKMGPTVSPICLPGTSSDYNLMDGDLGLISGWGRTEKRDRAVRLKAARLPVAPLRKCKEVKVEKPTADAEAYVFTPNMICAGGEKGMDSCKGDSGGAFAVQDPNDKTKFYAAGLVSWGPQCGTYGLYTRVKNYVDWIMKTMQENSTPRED
T3 sequence (P09871 16-437 partner limits assumed): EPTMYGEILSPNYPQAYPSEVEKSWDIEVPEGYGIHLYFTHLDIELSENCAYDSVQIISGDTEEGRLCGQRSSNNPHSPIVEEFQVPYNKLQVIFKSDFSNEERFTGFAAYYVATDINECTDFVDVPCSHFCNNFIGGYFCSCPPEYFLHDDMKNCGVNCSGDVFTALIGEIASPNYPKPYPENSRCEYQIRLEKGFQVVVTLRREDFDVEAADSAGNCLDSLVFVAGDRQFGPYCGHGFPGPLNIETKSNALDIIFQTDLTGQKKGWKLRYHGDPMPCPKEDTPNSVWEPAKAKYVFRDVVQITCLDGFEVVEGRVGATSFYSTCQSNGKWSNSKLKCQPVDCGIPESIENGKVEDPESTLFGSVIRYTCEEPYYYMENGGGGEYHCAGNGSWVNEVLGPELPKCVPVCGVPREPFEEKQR
Description: The anti-C1 esterase (C1r, C1s) activity was determined according to the method of Okamura et al. [K. Okamura, M. Muramatsu and B. Fujii, Biochem. Biophys. Acta, 295, 252-257 (1973)]. The inhibition of complement mediated hemolysis was determined according to the method of Baker et al. [B. R. Baker and E. H. Erickson, J. Med. Chem., 12, 408-414 (1969)]. The figures in Table 2 have the following meanings:
C1s: Molar concentration of the test compound which inhibits 50% of the ability of C1s to hydrolyse ATEE (acetyltyrosin ethyl ester).

Forssman shock = Forssman shock (survival time after hemolysin); assay type: in vivo, guinea pig (male Hartlay); settings: for time elapsed until death, average: control average 361 sec.
Description: Quite different from other animals, guinea pig has on the surface of its organs a specific antigen called Forssman antigen which specifically reacts with the antibody of sheep erythrocyte. Forssman shock is based on the above principle and is a shock caused by the administration of antibody of sheep erythrocyte to a guinea pig. The Forssman shock was investigated in detail by many researches and it was definitely shown that this shock is a model case where the complement plays the principal part and that the shock is associated with a classical pathway in which the complement system is activated progressively starting from C1. Since the participation of complement in autoimmune diseases has been established, the Forssman shock can be said to be a useful means for testing a drug for autoimmune diseases. A drug effective for the treatment of Forssman shock is useful as a drug of autoimmune diseases. [Anti-trypsin, anti-plasmin, anti-kallikrein and anti-thrombin activities]
The experiment was performed according to the method of I. G. Offerness et al. [Biochem. Pharmacol., 27 (14), 1873-1878 (1978)]. Male Hartlay guinea pig of about 300 g in body weight was used. Each guinea pig of the control group was administered intravenously with 0.5 ml (minimum dose to cause the shock) of hemolysin (commercial hemolysin, 5,000 U as assayed by the method of Ogata) and the time elapsed until death was observed. For the test group, each guinea pig was administered intravenously with the test compound 5 minutes before the administration of hemolysin and the time (second) elapsed until death was observed.

[2] = molar concentration inhibiting 50% of TAME hydrolysis, read-out: id50, Trypsin
[3] = molar concentration inhibiting 50% of TAME hydrolysis, read-out: id50, Plasmin

Chain of Plasmin (P00747 581-810 limits assumed): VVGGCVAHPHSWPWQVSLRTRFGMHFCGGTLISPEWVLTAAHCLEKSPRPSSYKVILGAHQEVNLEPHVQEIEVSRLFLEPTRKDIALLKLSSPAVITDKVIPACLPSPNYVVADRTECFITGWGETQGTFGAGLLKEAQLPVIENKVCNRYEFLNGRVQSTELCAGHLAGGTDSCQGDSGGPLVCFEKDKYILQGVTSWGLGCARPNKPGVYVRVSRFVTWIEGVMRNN
Chain of Plasmin (P00747 97-580 partner limits assumed): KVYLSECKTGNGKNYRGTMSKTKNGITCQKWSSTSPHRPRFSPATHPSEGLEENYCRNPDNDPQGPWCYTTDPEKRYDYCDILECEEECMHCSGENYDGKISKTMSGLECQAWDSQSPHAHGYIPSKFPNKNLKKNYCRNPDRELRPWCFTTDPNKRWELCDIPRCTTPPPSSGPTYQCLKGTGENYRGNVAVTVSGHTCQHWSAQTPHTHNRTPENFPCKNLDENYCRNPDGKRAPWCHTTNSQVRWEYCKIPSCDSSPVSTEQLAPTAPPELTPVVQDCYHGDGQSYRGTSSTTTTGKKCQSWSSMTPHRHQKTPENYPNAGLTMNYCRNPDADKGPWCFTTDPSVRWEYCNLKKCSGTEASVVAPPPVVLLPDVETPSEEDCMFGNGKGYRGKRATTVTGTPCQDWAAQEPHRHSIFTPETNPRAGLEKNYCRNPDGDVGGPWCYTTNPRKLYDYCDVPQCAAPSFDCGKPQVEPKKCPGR

Row | SMILES | inhibition at 100 µM (complement; 1 × 10^-4 M) | inhibition at 10 µM (complement; 1 × 10^-5 M) | inhibition at 1 µM (complement; 1 × 10^-6 M) | inhibition at 0.1 µM (complement; 1 × 10^-7 M) | pIC50 (Thrombin) | pIC50 (Trypsin; [2]) | pIC50 (Plasmin; [3]) | pIC50 (C1r) | inhibition at 100 µM (complement) | inhibition at 10 µM (C1r) | inhibition at 1 µM (complement) | also measured
1 | N=C(N)C=Cc1ccc(OC(=O)c2ccc(CN)cc2)cc1 [Compound 34] | 100% | 99% | 99% | 86% | – | – | – | – | – | – | – | LD50 ([1]; ip): 200 mg/kg; LD50 ([1]; po): 2500 mg/kg
2 | N=C(N)C=Cc1ccc(OC(=O)c2ccc(Cl)cc2)cc1 [Compound 39] | 100% | 99% | 89% | 71% | 5.70 | 5.70 | 5.40 | 6.30 | – | – | – | –
3 | CCCCCCC(=O)Oc1ccc(C=CC(=N)N)cc1 [Compound 3] | – | 75% | – | 0% | < 5.00 | < 5.00 | < 5.00 | – | 98% | 28% | – | –
4 | N=C(N)C=Cc1ccc(OC(=O)CCCCCNC(=N)N)cc1 [Compound 9, 4-(β-amidinoethenyl)phenyl 6-guanidinocaproate] | 97% | 72% | – | 0% | < 5.00 | 7.52 | < 5.00 | – | – | 28% | 6% | –
5 | N=C(N)C=Cc1ccc(OC(=O)c2ccc(OCc3ccccc3)cc2)cc1 [Compound 26] | 38% | 14% | 6% | 0% | < 5.00 | 6.70 | < 5.00 | – | – | 37% | – | –
6 | N=C(N)C=Cc1ccc(OC(=O)c2ccc(NC(=N)N)cc2)cc1 [Compound 35, 4-(β-amidinoethenyl)phenyl 4-guanidinobenzoate] | – | – | – | – | 6.00 | 7.70 | 6.05 | 5.40 | 100% | – | 97% | pIC50 (C1s; molar concentration inhibiting 50% of ATEE hydrolysis, read-out: Anti-C1 activity, C1s id50): 6.52; inhibition at 0.1 µM (complement): 46%; inhibition at 10 µM (complement): 100%; time elapsed until death (Forssman shock; 1 mg/kg i.v. 5 minutes before hemolysin, individual animals 1-4): 490 s and 375 s and 255 s and 285 s; time elapsed until death, average (Forssman shock; 1 mg/kg i.v.): 351 s; survival of individual animal (Forssman shock; 3 mg/kg i.v. 5 minutes before hemolysin, animal 2): Survival; time elapsed until death (Forssman shock; 3 mg/kg i.v. 5 minutes before hemolysin, individual animals): 365 s and 4000 s and 690 s; time elapsed until death, average (Forssman shock; 3 mg/kg i.v.): 528 s; LD50 ([1]; ip): 133 mg/kg; LD50 ([1]; po): 1200 mg/kg
7 | N=C(N)C=Cc1ccc(OC(=O)CCc2ccccc2)cc1 [Compound 15] | – | 10% | – | 0% | < 5.00 | 5.70 | < 5.00 | – | 80% | 10% | 2% | –
8 | N=C(N)C=Cc1ccc(OC(=O)CCCCCN)cc1 [Compound 8, 4-(β-amidinoethenyl)phenyl 6-aminohexanoate] | 27% | – | 9% | 0% | < 5.00 | 5.70 | < 5.00 | < 5.00 | – | – | – | inhibition at 10 µM (complement): 15%
9 | N=C(N)C=Cc1ccc(OC(=O)Cc2ccccc2)cc1 [Compound 13, 4-(β-amidinoethenyl)phenyl phenylacetate] | – | – | – | – | 5.30 | – | – | – | 99% | 21% | 6% | pIC50 (Trypsin): 6.00; pIC50 (Plasmin): 5.00; inhibition at 0.1 µM (complement): 0%; inhibition at 10 µM (complement): 31%
10 | N=C(N)C=Cc1ccc(OC(=O)C=Cc2cccc(C(F)(F)F)c2)cc1 [Compound 41] | 71% | 10% | 10% | 0% | < 5.00 | 5.52 | 5.52 | – | – | 20% | – | –
11 | CC(C)(C)c1ccc(C(=O)Oc2ccc(C=CC(=N)N)cc2)cc1 [Compound 22] | 88% | 76% | 25% | 11% | 5.52 | 5.30 | 5.52 | 5.30 | – | – | – | –
12 | N=C(N)C=Cc1ccc(OC(=O)c2ccccc2)cc1 [Compound 12, 4-(β-amidinoethenyl)-phenyl benzoate] | 100% | 100% | 54% | 11% | 5.52 | 6.22 | 5.70 | 6.10 | – | – | – | pIC50 (C1s): 6.52
13 | N=C(N)C=Cc1ccc(OC(=O)c2ccc(C=O)cc2)cc1 [Compound 30] | 99% | 94% | 62% | – | 6.22 | 5.40 | 6.22 | 6.00 | – | – | – | inhibition at 0.1 µM (complement): 45%
